Results reported in patent publication US7456165B2, “HCV NS5B inhibitors” (Bristol-Myers Squibb Company, priority 2006, dated 2008).

Key:
HCV NS5B = biological target: T1, HCV NS5B (Hepatitis C virus genotype 1b, UniProt Q9WMX2); assay: HCV NS5B RdRp enzyme assay (preincubation protocol); format: biochemical; details: HCV NS5B RdRp genotype 1b
T1 construct: The protein was expressed with an 18 amino acid C-terminal truncation to enhance the solubility; made in house; host or cells: E. coli BL21(DE3)
Description: HCV NS5B RdRp cloning, expression, and purification. The cDNA encoding the NS5B protein of HCV, genotype 1b, was cloned into the pET21a expression vector. The protein was expressed with an 18 amino acid C-terminal truncation to enhance the solubility. The E. coli competent cell line BL21(DE3) was used for expression of the protein. Cultures were grown at 37° C. for ˜4 hours until the cultures reached an optical density of 2.0 at 600 nm. The cultures were cooled to 20° C. and induced with 1 mM IPTG. Fresh ampicillin was added to a final concentration of 50 μg/ml and the cells were grown overnight at 20° C.
Cell pellets (3 L) were lysed for purification to yield 15-24 mgs of purified NS5B. The lysis buffer consisted of 20 mM Tris-HCl, pH 7.4, 500 mM NaCl, 0.5% triton X-100, 1 mM DTT, 1 mM EDTA, 20% glycerol, 0.5 mg/ml lysozyme, 10 mM MgCl2, 15 ug/ml deoxyribonuclease I, and Complete TM protease inhibitor tablets (Roche). After addition of the lysis buffer, frozen cell pellets were resuspended using a tissue homogenizer. To reduce the viscosity of the sample, aliquots of the lysate were sonicated on ice using a microtip attached to a Branson sonicator. The sonicated lysate was centrifuged at 100,000×g for 1 hr at 4° C. and filtered through a 0.2 μm filter unit (Corning).
The protein was purified using three sequential chromatography steps: Heparin sepharose CL-6B, polyU sepharose 4B, and Hitrap SP sepharose (Pharmacia). The chromatography buffers were identical to the lysis buffer but contained no lysozyme, deoxyribonuclease I, MgCl2 or protease inhibitor and the NaCl concentration of the buffer was adjusted according to the requirements for charging the protein onto the column. Each column was eluted with a NaCl gradient which varied in length from 5-50 column volumes depending on the column type. After the final chromatography step, the resulting purity of the enzyme is >90% based on SDS-PAGE analysis. The enzyme was aliquoted and stored at −80° C.
Standard HCV NS5B RdRp enzyme assay. HCV RdRp genotype 1b assays were run in a final volume of 60 μl in 96 well plates (Costar 3912 H. The assay buffer is composed of 20 mM Hepes, pH 7.5, 2.5 mM KCl, 2.5 mM MgCl2, 1 mM DTT, 1.6 U RNAse inhibitor (Promega N2515), 0.1 mg/ml BSA (Promega R3961), and 2% glycerol. All compounds were serially diluted (3-fold) in DMSO and diluted further in water such that the final concentration of DMSO in the assay was 2%. HCV RdRp genotype 1b enzyme was used at a final concentration of 28 nM. A polyA template was used at 6 nM, and a biotinylated oligo-dT12 primer was used at 180 nM final concentration. Template was obtained commercially (Amersham 27-4110). Biotinylated primer was prepared by Sigma Genosys. 3H-UTP was used at 0.6 μCi (0.29 μM total UTP). Reactions were initiated by the addition of enzyme, incubated at 30° C. for 60 min, and stopped by adding 25 μl of 50 mM EDTA containing SPA beads (4 μg/μl, Amersham RPNQ 0007 H. Plates were read on a Packard Top Count NXT after >1 hr incubation at room temperature.
Modified HCV NS5B RdRp enzyme assay. A modified enzyme assay was performed essentially as described for the standard enzyme assay except for the following: The biotinylated oligo dT12 primer was precaptured on streptavidin-coated SPA beads by mixing primer and beads in assay buffer and incubating at room temperature for one hour. Unbound primer was removed after centrifugation. The primer-bound beads were resuspended in 20 mM Hepes buffer, pH 7.5 and used in the assay at final concentrations of 20 nM primer and 0.67 μg/μl beads. Order of addition in the assay: enzyme (14 nM) was added to diluted compound followed by the addition of a mixture of template (0.2 nM), 3H-UTP (0.6 μCi, 0.29 μM), and primer-bound beads, to initiate the reaction; concentrations given are final. Reactions were allowed to proceed for 4 hours at 30° C.
IC50 values for compounds were determined using seven different [I]. […]

HCV replicon cells = assay: HCV replicon FRET assay; format: cell-based; details: Hepatitis C virus
Description: FRET Assay Preparation. To perform the HCV FRET screening assay, 96-well cell culture plates were used. The FRET peptide (Anaspec, Inc.) (Taliani et al., Anal Biochem. 1996, 240, 60-67) contains a fluorescence donor, EDANS, near one end of the peptide and an acceptor, DABCYL, near the other end. The fluorescence of the peptide is quenched by […] resonance energy transfer (RET) between the donor and the acceptor, but as the NS3 protease cleaves the peptide the products are released from RET quenching and the fluorescence of the donor becomes apparent. The assay reagent was made as follows: 5× cell Luciferase cell culture lysis reagent from Promega (#E153A) diluted to 1× with dH2O, NaCl added to 150 mM final, the FRET peptide diluted to 20 μM final from a 2 mM stock.
To prepare plates, HCV replicon cells, with or without a Renilla luciferase reporter gene, were trypsinized and placed into each well of a 96-well plate with titrated test compounds added in columns 3 through 12; columns 1 and 2 contained a control compound (HCV protease inhibitor), and the bottom row contained cells without compound. The plates were then placed in a CO2 incubator at 37° C.
Assays. Subsequent to addition of the test compounds described above (FRET Assay Preparation), at various times the plate was removed and Alamar blue solution (Trek Diagnostics, #00-100) was added per well as a measure of cellular toxicity. After reading in a Cytoflour 4000 instrument (PE Biosystems), plates were rinsed with PBS and then used for FRET assay by the addition of 30 ul of the FRET peptide assay reagent described above (FRET Assay Preparation) per well. The plate was then placed into the Cytoflour 4000 instrument which had been set to 340 excite/490 emission, automatic mode for 20 cycles and the plate read in a kinetic mode. Typically, the signal to noise using an endpoint analysis after the reads was at least three-fold. Alternatively, after Alamar blue reading, plates were rinsed with PBS, 50 ul of DMEM (high glucose) without phenol red was added and plates were then used for luciferase assay using the Promega Dual-Glo Luciferase Assay System.
Compound analysis was determined by quantification of the relative HCV replicon inhibition and the relative cytotoxicity values. To calculate cytoxicity values, the average Alamar Blue fluorescence signals from the control wells were set as 100% non-toxic. The individual signals in each of the compound test wells were then divided by the average control signal and multiplied by 100% to determine […]. To calculate the HCV replicon inhibition values, an average background value was obtained from the two wells containing the highest amount of HCV protease inhibitor at the end of the assay period. These numbers were similar to those obtained from naïve Huh-7 cells.
The background numbers were then subtracted from the average signal obtained from the control wells and this number was used as 100% activity. The individual signals in each of the compound test wells were then divided by the averaged control values after background subtraction and multiplied by 100% to determine percent activity. EC50 values for a protease inhibitor titration were calculated as the concentration which caused a 50% reduction in FRET or luciferase activity. The two numbers generated for the compound plate, percent cytoxicity and percent activity were used to determine compounds of interest for further analysis.

T1 sequence (Q9WMX2 2420-2992): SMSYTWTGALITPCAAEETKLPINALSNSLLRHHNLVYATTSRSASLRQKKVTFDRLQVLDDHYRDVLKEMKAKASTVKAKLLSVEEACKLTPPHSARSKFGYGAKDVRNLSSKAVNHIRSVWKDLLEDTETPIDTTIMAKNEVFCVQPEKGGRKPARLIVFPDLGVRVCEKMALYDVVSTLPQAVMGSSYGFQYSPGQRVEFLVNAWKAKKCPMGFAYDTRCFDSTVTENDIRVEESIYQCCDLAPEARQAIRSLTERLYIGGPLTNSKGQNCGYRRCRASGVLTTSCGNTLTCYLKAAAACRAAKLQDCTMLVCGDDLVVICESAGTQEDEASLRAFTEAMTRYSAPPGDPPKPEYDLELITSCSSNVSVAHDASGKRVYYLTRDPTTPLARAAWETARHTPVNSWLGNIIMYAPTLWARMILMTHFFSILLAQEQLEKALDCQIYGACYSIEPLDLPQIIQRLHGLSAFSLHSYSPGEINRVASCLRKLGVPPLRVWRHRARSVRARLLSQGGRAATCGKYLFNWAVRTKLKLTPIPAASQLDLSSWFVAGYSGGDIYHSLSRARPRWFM

Row | Compound | IC50 (HCV NS5B) [nM] | EC50 (HCV replicon cells) [nM]
1 | O=C(O)c1ccc2c(C3CCCCC3)c3n(c2c1)CC(c1nnnn1CC1CCCO1)=Cc1ccccc1-3 (stereo not shown) [Example 10, 13-cyclohexyl-6-[1-[(tetrahydro-2-furanyl)methyl]-1H-tetrazol-5-yl]-7H-indolo[2,1-a][2]benzazepine-10-carboxylic acid] | 1 to 500 | > 500
2 | O=C(O)c1ccc2c(C3CCCCC3)c3n(c2c1)CC(c1nnn(CC2CCOCC2)n1)=Cc1ccccc1-3 [Example 11, 13-cyclohexyl-6-[2-[(tetrahydro-2H-pyran-4-yl)methyl]-2H-tetrazol-5-yl]-7H-indolo[2,1a][2]benzazepine-10-carboxylic acid] | 1 to 500 | > 500
3 | O=C(O)c1ccc2c(C3CCCCC3)c3n(c2c1)C=C(c1nnn(CC2CCOCC2)n1)Cc1ccccc1-3 [Example 12, 13-cyclohexyl-6-[2-[(tetrahydro-2H-pyran-4-yl)methyl]-2H-tetrazol-5-yl]-5H-indolo[2,1-a][2]benzazepine-10-carboxylic acid] | > 500 | > 500
4 | O=C(O)c1ccc2c(C3CCCCC3)c3n(c2c1)CC(c1nnnn1CC1CCOCC1)=Cc1ccccc1-3 [Example 13, 13-cyclohexyl-6-[1-[(tetrahydro-2H-pyran-4-yl)methyl]-1H-tetrazol-5-yl]-7H-indolo[2,1-a][2]benzazepine-10-carboxylic acid] | 1 to 500 | > 500
5 | O=C(O)c1ccc2c(C3CCCCC3)c3n(c2c1)C=C(c1nnnn1CC1CCOCC1)Cc1ccccc1-3 [Example 14, 13-cyclohexyl6-[1-[(tetrahydro-2H-pyran-4-yl)methyl]-1H-tetrazol-5-yl]-5H-indolo[2,1-a][2]benzazepine-10-carboxylic acid] | > 500 | > 500
6 | CN(C)S(=O)(=O)NC(=O)c1ccc2c(C3CCCCC3)c3n(c2c1)CC(c1nnn(CC2CCOCC2)n1)=Cc1ccccc1-3 [Example 15, 13-cyclohexyl-N-[(dimethylamino)sulfonyl]-6-[2-[(tetrahydro-2H-pyran-4-yl)methyl]-2H-tetrazol-5-yl]-7H-indolo[2,1-a][2]benzazepine-10-carboxamide] | 1 to 500 | > 500
7 | COc1ccc2c(c1)C=C(c1nnn(CC3CCOCC3)n1)Cn1c-2c(C2CCCCC2)c2ccc(C(=O)O)cc21 [Example 16, 13-cyclohexyl-3-methoxy-6-[2-[(tetrahydro-2H-pyran-4-yl)methyl]-2H-tetrazol-5-yl]-7H-indolo[2,1-a][2]benzazepine-10-carboxylic acid] | 1 to 500 | > 500
8 | COc1ccc2c(c1)C=C(c1nnn(CC3CCOCC3)n1)Cn1c-2c(C2CCCCC2)c2ccc(C(=O)NS(=O)(=O)N(C)C)cc21 [Example 17, 13-cyclohexyl-N-[(dimethylamino)sulfonyl]-3-methoxy-6-[2-[(tetrahydro-2H-pyran-4-yl)methyl]-2H-tetrazol-5-yl]-7H-indolo[2,1-a][2]benzazepine-10-carboxamide] | 1 to 500 | 1 to 500
9 | O=C(O)c1ccc2c(C3CCCCC3)c3n(c2c1)CC(c1n[nH]c(=O)o1)=Cc1ccccc1-3 [Example 19, 13-cyclohexyl-6-(4,5-dihydro-5-oxo-1,3,4-oxadiazol-2-yl)-7H-indolo[2,1-a][2]benzazepine-10-carboxylic acid] | 1 to 500 | > 500
10 | O=C(O)c1ccc2c(C3CCCCC3)c3n(c2c1)CC(c1nn(CC2CCOCC2)c(=O)o1)=Cc1ccccc1-3 [Example 21, 13-cyclohexyl-6-[4,5-dihydro-5-oxo-4-[(tetrahydro-2H-pyran-4-yl)methyl]-1,3,4-oxadiazol-2-yl]-7H-indolo[2,1-a][2]benzazepine-10-carboxylic acid] | 1 to 500 | > 500
11 | O=C(O)c1ccc2c(C3CCCCC3)c3n(c2c1)CC(c1n[nH]c(CC2CCOCC2)n1)=Cc1ccccc1-3 [Example 22, 13-cyclohexyl-6-[3-[(tetrahydro-2H-pyran-4-yl)methyl]-1H-1,2,4-triazol-5-yl]-7H-indolo[2,1-a][2]benzazepine-10-carboxylic acid] | 1 to 500 | > 500
12 | COC(=O)c1ccc2c(C3CCCCC3)c3n(c2c1)CC(c1nc(C)no1)=Cc1ccccc1-3 [Example 23, 13-cyclohexyl-6-(3-methyl-1,2,4-oxadiazol-5-yl)-7H-indolo[2,1-a][2]benzazepine-10-carboxylic acid, methyl ester] | > 500 | > 500
13 | Cc1noc(C2=Cc3ccccc3-c3c(C4CCCCC4)c4ccc(C(=O)O)cc4n3C2)n1 [Example 24, 13-cyclohexyl-6-(3-methyl-1,2,4-oxadiazol-5-yl)-7H-indolo[2,1-a][2]benzazepine-10-carboxylic acid] | 1 to 500 | > 500
14 | Cc1noc(C2=Cc3ccccc3-c3c(C4CCCCC4)c4ccc(C(=O)NS(=O)(=O)N(C)C)cc4n3C2)n1 [Example 25, 13-cyclohexyl-N-[(dimethylamino)sulfonyl]-6-(3-methyl-1,2,4-oxadiazol-5-yl)-7H-indolo[2,1-a][2]benzazepine-10-carboxamide] | 1 to 500 | 1 to 500
